Entries after “also recorded” stand apart in the source; their conditions may differ.
Columns and labels:
Type in all cases: biochemical
PRMT1 [1] = biological target: T1, PRMT1 (Homo sapiens, UniProt Q99873); test: selectivity of YD1113/YD1290 on PRMT panel, PRMT1; conditions: vs YD1113
T1 construct: made in house
Method: (§1) The selectivity of compounds YD1113 and YD1290 on PRMTs were performed by Reaction Biology Corp.
(§2) Next, the selectivity of YD1113 was investigated on a panel of PRMTs at 10 μM.
(§3) After validating the benzyl urea moiety as an unconventional homocysteine mimic of SAH for PRMTs, it was hypothesized that incorporating the benzyl urea moiety into the original pan PRMT inhibitor II757 would build a potent bisubstrate inhibitor. […] To enable a stable tri-substitution, the sulfur atom with a nitrogen atom was replaced. YD1290 was synthesized following the reported methods 9, 15 and tested in a radioactivity assay for PRMTs (FIG. 6b).

PRMT3 = PRMT3 (Homo sapiens, UniProt O60678); test: selectivity of YD1113/YD1290 on PRMT panel, PRMT3; conditions: vs YD1113
Sequence of PRMT3 (O60678 whole entry, species assumed): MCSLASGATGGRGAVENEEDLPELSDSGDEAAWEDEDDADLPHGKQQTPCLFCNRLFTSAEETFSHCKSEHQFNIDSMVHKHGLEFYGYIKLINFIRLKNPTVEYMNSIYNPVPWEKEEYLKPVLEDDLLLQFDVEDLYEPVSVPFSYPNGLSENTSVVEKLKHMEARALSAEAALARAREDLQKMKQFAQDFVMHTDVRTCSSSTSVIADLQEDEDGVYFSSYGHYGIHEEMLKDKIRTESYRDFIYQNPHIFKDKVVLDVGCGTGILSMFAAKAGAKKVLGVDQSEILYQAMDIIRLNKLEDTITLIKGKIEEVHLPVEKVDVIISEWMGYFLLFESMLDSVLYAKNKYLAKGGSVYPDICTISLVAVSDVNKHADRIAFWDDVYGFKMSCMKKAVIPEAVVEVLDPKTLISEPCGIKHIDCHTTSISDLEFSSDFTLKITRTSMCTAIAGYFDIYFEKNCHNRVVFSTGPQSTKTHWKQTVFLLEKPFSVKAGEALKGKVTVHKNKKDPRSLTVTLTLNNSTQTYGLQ
Method: as §1, §2, §3

PRMT4 = biological target: T2, PRMT4 (Homo sapiens, UniProt Q86X55); test: selectivity of YD1113/YD1290 on PRMT panel, PRMT4
T2 sequence (Q86X55 1-608): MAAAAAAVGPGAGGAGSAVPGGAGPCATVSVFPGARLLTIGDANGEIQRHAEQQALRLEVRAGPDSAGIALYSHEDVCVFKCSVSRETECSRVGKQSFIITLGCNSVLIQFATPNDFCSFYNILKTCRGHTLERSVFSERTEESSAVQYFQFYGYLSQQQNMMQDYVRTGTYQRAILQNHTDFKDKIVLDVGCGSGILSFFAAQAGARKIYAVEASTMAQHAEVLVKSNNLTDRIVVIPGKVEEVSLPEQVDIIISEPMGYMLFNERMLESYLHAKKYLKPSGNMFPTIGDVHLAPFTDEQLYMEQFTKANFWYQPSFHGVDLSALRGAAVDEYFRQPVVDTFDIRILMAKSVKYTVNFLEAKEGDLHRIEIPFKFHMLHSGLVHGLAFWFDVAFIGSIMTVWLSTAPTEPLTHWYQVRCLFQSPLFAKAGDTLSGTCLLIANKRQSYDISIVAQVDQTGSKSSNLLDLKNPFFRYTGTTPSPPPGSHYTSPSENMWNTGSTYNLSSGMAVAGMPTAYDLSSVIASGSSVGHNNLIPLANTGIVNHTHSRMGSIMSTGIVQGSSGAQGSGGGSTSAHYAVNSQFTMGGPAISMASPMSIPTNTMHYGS
Method: as §1, §2, §3

PRMT6 = PRMT6 (Homo sapiens, UniProt Q96LA8); test: selectivity of YD1113/YD1290 on PRMT panel, PRMT6; conditions: vs YD1113
Sequence of PRMT6 (Q96LA8 whole entry, species assumed): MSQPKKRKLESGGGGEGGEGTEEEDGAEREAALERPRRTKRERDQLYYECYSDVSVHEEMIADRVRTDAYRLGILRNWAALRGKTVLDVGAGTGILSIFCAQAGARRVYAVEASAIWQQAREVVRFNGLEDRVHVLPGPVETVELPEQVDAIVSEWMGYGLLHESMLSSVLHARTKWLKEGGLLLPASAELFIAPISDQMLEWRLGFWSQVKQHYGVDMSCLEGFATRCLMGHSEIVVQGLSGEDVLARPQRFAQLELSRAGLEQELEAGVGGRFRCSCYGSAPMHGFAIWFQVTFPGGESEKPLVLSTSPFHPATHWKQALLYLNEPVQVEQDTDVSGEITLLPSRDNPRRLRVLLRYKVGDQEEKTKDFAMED
Method: as §1, §2, §3

PRMT8 = PRMT8 (Homo sapiens, UniProt Q9NR22); test: selectivity of YD1113/YD1290 on PRMT panel, PRMT8; conditions: vs YD1113
Sequence of PRMT8 (Q9NR22 whole entry, species assumed): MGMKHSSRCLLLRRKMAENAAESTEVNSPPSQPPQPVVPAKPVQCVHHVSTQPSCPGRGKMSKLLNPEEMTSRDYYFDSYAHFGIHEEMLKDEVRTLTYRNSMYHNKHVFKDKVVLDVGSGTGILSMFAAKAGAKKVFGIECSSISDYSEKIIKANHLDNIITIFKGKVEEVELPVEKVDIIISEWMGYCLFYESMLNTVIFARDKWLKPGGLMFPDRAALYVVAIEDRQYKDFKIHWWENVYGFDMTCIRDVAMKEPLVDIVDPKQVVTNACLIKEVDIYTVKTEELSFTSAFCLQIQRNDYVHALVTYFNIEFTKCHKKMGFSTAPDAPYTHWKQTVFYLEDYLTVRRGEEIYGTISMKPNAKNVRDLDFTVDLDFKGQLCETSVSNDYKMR
Method: as §1, §2, §3

type I PRMTs = test: inhibition of type I PRMTs (summary)
Method: as §1

PRMT1 [2] = biological target: T1, PRMT1; test: inhibition mechanism study on PRMT1, SAHH-coupled fluorescence; conditions: role: inhibitor
Method: The inhibition mechanism of YD1290 was study on PRMT1 with the fluorescence-based SAHH-coupled assay. Varying concentrations of SAM (from 5 to 40 μM) with 4 μM fixed concentration of H4-21 or varying concentration of H4-21 (from 4 to 32 μM) with 5 μM fixed concentration of SAM were included in reactions at concentration of YD1290 ranging from 0.15 nM to 10 μM.
All the IC50 values were determined in triplicate. Fluorescence was monitored on a BMG CLARIOstar microplate reader with excitation 380 nm and emission 505 nm. Data were processed by using GraphPad Prism software 8.0.
To confirm the potent inhibition activities of YD1290 on type I PRMTs resulting from bisubstrate characteristics, its inhibition mechanism on PRMT1 was determined through the SAHH-coupled fluorescence-based assay.

SAHH = test: selectivity, SAHH; conditions: 100 μM
Method: The effect of the inhibitors on the coupled enzyme, SAHH, was also evaluated. The assay was performed in a final well volume of 100 μL: 25 mM Tris (pH=7.5), 50 mM KCl, 0.01% Triton X-100, 0.1 μM SAHH, and 15 μM ThioGlo1. After incubation for 10 min with the compound, 0.5 μM SAH was added to initiate the reactions.
All experiments were performed in duplicate. Fluorescence was monitored on a BMG CLARIOstar microplate reader with excitation at 380 nm and emission at 505 nm.
To examine the selectivity, the inhibition of YD1290 on four inhouse methyltransferases, including protein N-terminal methyltransferase 1 (NTMT1), nicotinamide N-methyltransferase (NNMT), and two protein lysine methyltransferases PKMT (G9a and SETD7) were tested.

NTMT1 = biological target: T3, NTMT1 (Homo sapiens, UniProt Q9BV86); test: selectivity, SAHH-coupled assay NTMT1; conditions: 100 μM
T3 construct: GPKRIA peptide as substrate
T3 sequence (Q9BV86 whole entry): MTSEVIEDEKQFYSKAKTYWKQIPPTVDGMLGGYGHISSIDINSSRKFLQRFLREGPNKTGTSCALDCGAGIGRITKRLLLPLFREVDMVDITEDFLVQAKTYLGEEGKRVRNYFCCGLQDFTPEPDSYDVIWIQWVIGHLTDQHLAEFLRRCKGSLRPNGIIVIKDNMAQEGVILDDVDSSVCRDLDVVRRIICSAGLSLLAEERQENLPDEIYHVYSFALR
Method: (§4) A fluorescence-based SAHH-coupled assay was applied to study the effect of the compound on methyltransferase activity of NTMT1, SETD7, G9a, NNMT, tbPRMT7 and SAHH. For NTMT1, the assay was performed in a final well volume of 100 μL: 25 mM Tris (pH=7.5), 50 mM KCl, 0.01% Triton X-100, 5 μM.
(§5) SAHH, 0.1 μM NTMT1, 3 μM AdoMet, and 10 μM ThioGlo4. After incubation for 10 min with the inhibitor, reactions were initiated by the addition of 0.5 μM GPKRIA peptide, and the reaction was monitored for 15 min. For SETD7, the assay was performed in a final well volume of 100 μL: 25 mM potassium phosphate buffer (pH=7.6), 0.01% Triton X-100, 5 μM SAHH, 1 μM SETD7, 2 μM AdoMet, and 10 μM ThioGlo1. After incubation for 10 min with the inhibitor, reactions were initiated by the addition of 90 μM H3-21 peptide, and the reaction was monitored for 15 min. […] After incubation for 10 min with the inhibitor, reactions were initiated by the addition of 10 μM nicotinamide, and the reaction was monitored for 18 min. […] After incubation for 10 min with the inhibitor, reactions were initiated by the addition of 60 μM H4-21 peptide, and the reaction was monitored for 15 min. […]
(§6) All experiments were performed in duplicate. Fluorescence was monitored on a BMG CLARIOstar microplate reader with excitation at 380 nm and emission at 505 nm. […]

SETD7 = biological target: T4, SETD7 (Homo sapiens, UniProt Q8WTS6); test: selectivity, SAHH-coupled assay SETD7; conditions: 100 μM
T4 construct: H3-21 peptide as substrate
T4 sequence (Q8WTS6 whole entry): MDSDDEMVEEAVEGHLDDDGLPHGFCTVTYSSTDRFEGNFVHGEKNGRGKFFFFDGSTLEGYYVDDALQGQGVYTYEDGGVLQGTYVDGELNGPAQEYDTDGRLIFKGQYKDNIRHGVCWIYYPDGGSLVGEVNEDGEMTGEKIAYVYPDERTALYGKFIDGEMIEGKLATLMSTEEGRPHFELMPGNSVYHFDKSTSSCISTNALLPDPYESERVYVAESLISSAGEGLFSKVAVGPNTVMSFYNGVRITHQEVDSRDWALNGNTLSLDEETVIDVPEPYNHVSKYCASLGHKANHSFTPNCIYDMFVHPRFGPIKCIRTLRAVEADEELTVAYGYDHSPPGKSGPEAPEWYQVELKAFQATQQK
Method: as §4, §5, §6

G9a = G9a (Homo sapiens, UniProt Q96KQ7); test: selectivity, SAHH-coupled assay G9a; conditions: 100 μM
Sequence of G9a (Q96KQ7 whole entry): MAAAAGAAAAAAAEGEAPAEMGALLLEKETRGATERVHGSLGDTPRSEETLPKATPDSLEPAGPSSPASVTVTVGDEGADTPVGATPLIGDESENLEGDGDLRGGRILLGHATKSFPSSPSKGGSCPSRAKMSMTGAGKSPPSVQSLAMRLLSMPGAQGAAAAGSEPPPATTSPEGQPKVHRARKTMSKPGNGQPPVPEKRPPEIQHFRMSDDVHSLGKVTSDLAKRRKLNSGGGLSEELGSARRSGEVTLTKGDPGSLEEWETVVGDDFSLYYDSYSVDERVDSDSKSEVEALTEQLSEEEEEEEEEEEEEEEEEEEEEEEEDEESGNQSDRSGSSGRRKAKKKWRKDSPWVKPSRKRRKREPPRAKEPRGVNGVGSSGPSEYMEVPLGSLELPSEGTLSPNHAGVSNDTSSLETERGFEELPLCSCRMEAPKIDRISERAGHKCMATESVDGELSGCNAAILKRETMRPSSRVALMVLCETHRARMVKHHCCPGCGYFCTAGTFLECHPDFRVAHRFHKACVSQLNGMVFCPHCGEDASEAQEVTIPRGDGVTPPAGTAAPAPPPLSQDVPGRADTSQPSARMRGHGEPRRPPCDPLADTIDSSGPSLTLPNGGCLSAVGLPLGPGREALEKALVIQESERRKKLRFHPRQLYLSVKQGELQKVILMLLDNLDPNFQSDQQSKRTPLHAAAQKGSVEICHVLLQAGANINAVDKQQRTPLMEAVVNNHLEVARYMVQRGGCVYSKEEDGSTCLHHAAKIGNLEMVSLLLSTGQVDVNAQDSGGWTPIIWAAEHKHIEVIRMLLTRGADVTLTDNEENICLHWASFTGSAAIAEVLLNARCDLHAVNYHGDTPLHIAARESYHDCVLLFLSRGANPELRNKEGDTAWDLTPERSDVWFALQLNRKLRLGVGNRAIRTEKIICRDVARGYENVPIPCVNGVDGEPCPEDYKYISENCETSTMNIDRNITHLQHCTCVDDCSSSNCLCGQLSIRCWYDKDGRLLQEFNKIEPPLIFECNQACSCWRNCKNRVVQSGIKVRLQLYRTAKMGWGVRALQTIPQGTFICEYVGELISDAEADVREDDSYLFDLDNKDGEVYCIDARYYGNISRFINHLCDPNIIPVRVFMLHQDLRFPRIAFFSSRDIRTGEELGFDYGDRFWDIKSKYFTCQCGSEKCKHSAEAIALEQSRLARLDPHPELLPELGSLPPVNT
Method: as §4, §5, §6

NNMT = biological target: T5, NNMT (Homo sapiens, UniProt P40261); test: selectivity, SAHH-coupled assay NNMT; conditions: 100 μM
T5 construct: nicotinamide as substrate
T5 sequence (P40261 whole entry): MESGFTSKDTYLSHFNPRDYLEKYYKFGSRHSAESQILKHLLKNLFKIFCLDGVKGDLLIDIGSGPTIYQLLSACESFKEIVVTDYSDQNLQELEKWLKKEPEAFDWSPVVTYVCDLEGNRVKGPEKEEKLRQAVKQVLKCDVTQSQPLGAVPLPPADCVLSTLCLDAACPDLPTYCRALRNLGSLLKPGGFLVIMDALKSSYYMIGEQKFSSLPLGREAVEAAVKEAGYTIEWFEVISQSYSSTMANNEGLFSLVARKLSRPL
Method: as §4, §5, §6

PRMTs = test: radioactivity assay, all tested PRMTs
Method: as §1, §3

T1 sequence (Q99873 whole entry, species assumed): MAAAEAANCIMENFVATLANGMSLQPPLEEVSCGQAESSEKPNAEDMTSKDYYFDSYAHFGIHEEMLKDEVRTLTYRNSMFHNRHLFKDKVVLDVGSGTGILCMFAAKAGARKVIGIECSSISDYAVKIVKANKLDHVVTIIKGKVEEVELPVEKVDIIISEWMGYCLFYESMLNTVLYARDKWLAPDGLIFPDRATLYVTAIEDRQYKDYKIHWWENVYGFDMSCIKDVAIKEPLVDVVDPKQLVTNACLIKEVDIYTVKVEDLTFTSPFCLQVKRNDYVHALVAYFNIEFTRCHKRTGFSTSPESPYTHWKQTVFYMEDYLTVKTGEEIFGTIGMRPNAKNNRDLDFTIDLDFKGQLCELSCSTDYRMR

fold potency to PRMT1 compared to YD1113 (PRMT1 [1]): > 80 fold | fold potency to PRMT3 compared to YD1113 (PRMT3): > 80 fold | PRMT4 activity (PRMT4; 1.5 nM, radioactivity assay): completely abolished PRMT4 activity | fold potency to PRMT4 compared to YD1113 (PRMT4; vs YD1113): > 80 fold | fold potency to PRMT6 compared to YD1113 (PRMT6): > 80 fold | fold potency to PRMT8 compared to YD1113 (PRMT8): > 80 fold | inhibition mechanism vs SAM, PRMT1 (PRMT1 [2]; SAM 5 to 40 μM, H4-21 4 μM fixed): SAM-site competitive inhibitor of PRMT1
SMILES: N=C(NCCCN(CCNC(=O)NCc1ccccc1)C[C@H]1O[C@@H](n2cnc3c(N)ncnc32)[C@H](O)[C@@H]1O)Nc1cccc(Br)c1 [YD1290]
IC50 (type I PRMTs): < 5 nM | inhibition mechanism vs peptide substrate, PRMT1 (PRMT1 [2]; H4-21 4 to 32 μM, SAM 5 μM fixed): slightly increased when the ratio of peptide/Km increased; also recorded: peptide-site competitive inhibitor of PRMT1 | inhibition of SAHH (SAHH): did not display any significant inhibition | inhibition of NTMT1 (NTMT1): did not display any significant inhibition | inhibition of SETD7 (SETD7): did not display any significant inhibition | inhibition of G9a (G9a): did not display any significant inhibition | inhibition of NNMT (NNMT): did not display any significant inhibition | potency to all tested PRMTs (PRMTs): demonstrated potency to all tested PRMTs

Source: patent publication US20260306527A1, “PRMT INHIBITOR COMPOUNDS AND THE USES THEREOF” (Purdue Research Foundation, priority 2023, published 2026)
